Test results published in patent US20260199351A1, “TRIAZOLE COMPOUNDS, PREPARATION METHODS AND MEDICINAL USES THEREOF” (Jiangsu Hengrui Pharmaceuticals Co., Ltd., priority 2022, published 2026).

Experiments:
[1] = biological target: T1, WRN helicase (His-WRN527-072) (Homo sapiens, UniProt Q14191); test: WRN Helicase Assay (fluorescent forked DNA); assay type: biochemical; conditions: 30 min pre-incubation, 60 min reaction at room temperature
T1 construct: in-house produced His-WRN527-072 was used; His (N); made in house
T1 sequence (Q14191 527-1072 limits assumed): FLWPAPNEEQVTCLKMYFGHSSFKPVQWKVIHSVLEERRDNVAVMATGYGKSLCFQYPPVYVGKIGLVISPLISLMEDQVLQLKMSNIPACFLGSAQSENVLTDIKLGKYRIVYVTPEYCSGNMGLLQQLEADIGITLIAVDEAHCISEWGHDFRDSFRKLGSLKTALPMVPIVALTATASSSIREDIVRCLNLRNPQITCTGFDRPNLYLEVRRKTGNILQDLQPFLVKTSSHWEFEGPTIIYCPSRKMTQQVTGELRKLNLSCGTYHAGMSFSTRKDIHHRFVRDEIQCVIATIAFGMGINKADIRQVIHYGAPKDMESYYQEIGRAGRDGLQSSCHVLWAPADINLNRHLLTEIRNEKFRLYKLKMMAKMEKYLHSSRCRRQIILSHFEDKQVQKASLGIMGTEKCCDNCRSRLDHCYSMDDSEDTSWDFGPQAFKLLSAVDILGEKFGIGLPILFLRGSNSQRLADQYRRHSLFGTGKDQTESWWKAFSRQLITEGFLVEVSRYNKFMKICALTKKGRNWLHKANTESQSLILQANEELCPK
Description: To assess the inhibition properties of the invented compounds on WRN helicase activity, a fluorescent assay using forked DNA was set up. In the helicase assay, in-house produced His-WRN527-072 was used. […] 2.5-fold serial dilution of test compounds were prepared for 7 gradient points with DMSO, and then 1.5 μl of each concentration were added to 48.5 μl of assay buffer (25 mM Tris-HCl (pH 8.0), 50 mM NaCl, 2 mM MgCl2, 1 mM DTT, 0.0500 Tween-20, and 2.5 μg/ml BSA) for further dilution. […] Each concentration of the compounds was added as triplicate in the plate. Controls were included in the test to validate the assay. […] Forked DNA and ATP were diluted into 300 nM and 6 mM, respectively, with assay buffer. To initiate the reaction, 5 μl of the dsDNA and ATP solution were added to the assay plate. After 60 minutes room temperature incubation, the plate was transferred to Victor Nivo multimode plate reader (Perkin Elmer, Waltham, MA) and the fluorescence outputs were monitored. GraphPad Prism 9 (GraphPad Software, San Diego, CA) was used to carry out the dose-response curves, deriving IC50s.

[2] = tested on: SW48; test: SW48 cell assay; assay type: cell-based; conditions: Homo sapiens
[3] = biological target: T2, WRN ATPase (Homo sapiens, UniProt Q14191); test: WRN ATPase Assay (ADP-Glo); assay type: biochemical; conditions: DNA dependent WRN ATPase activity
T2 construct: in-house produced His-WRN527-072 was used; His (N); made in house
T2 sequence (Q14191 527-1072 limits assumed): as above
Description: WRN ATPase Assay To evaluate the inhibition properties of the invented compounds on DNA dependent WRN ATPase activity, an ATPase assay using ADP-Glo assay kit (Promega, Madison, WI) was established. In the ATPase assay, the same WRN protein and DNA substrate as described in helicase assay were used. The serial dilution of the compounds in DMSO was same as helicase assay. […] All the test wells were set as triplicate. Afterwards, 2.5 μl of assay buffer containing 400 nM DNA substrate and 4 mM ATP were added to each well and incubated for 60 minutes. The protein-free control (maximal inhibition) and no-compound control (no inhibition) were included in the test. To stop the reaction and deplete the excessive ATP, 10 μl of the ADP-Glo™ Reagent from the assay kit were added and incubated for 40 minutes. Then, 20 μl of the ATP detection reagent was added. After 30 minutes incubation, the luminescence was measured using Victor Nivo multimode plate reader (Perkin Elmer, Waltham, MA). Dose-response curves, spanning IC50s, were generated by GraphPad Prism 9 (GraphPad Software, San Diego, CA).

With `CCc1c(N2C3CC2CN(C(=O)c2ncnc(C)c2O)C3)c(=O)n2nc(C3=CCOCC3)nc2n1CC(=O)Nc1ccc(C(F)(F)F)cc1Cl` [Compound 1] the IC50 [1] was 48000 nM.
With `CCc1c(N2CC3CC2CN3C(=O)c2ncnc(C)c2O)c(=O)n2nc(C3=CCOCC3)nc2n1CC(=O)Nc1ccc(C(F)(F)F)cc1Cl` (centres unmarked) [Compound 2] the IC50 [1] was 6.4 nM and the IC50 [2] was 5740 nM.
`CCc1c(N2CC3CCC(C2)N3C(=O)c2ncccc2O)c(=O)n2nc(C3=CCOCC3)nc2n1CC(=O)Nc1ccc(C(F)(F)F)cc1Cl` [Compound 4] showed an IC50 [1] of 4.5 nM and an IC50 [2] of 1350 nM.
`CCc1c(N2CC3CCC(C2)N3C(=O)c2ncccc2O)c(=O)n2nc(C3=CCOCC3)nc2n1CC(=O)Nc1ccc(C(F)(F)F)nc1Cl` [Compound 8] showed an IC50 [1] of 5.9 nM and an IC50 [2] of 1630 nM.
Molecule `CCc1c(N2CC3CCC(C2)N3C(=O)c2ncnc(C)c2O)c(=O)n2nc(C3=CCOCC3)nc2n1CC(=O)Nc1ccc(C(F)(F)F)nc1Cl` [Compound 15] has an IC50 [1] of 9.2 nM and an IC50 [2] of 3490 nM.
With `CCc1c(N2[C@@H]3CC[C@H]2CN(C(=O)c2ncnc(C)c2O)C3)c(=O)n2nc(C3=CCOCC3)nc2n1CC(=O)Nc1ccc(C(F)(F)F)cc1C` [Compound 17] the IC50 [1] was 3.5 nM and the IC50 [2] was 183 nM.
Work on `CCc1c(N2CCCN(C(=O)c3ncnc(C)c3O)CC2)c(=O)n2nc(C3=CCOCC3)nc2n1CC(=O)Nc1ccc(C(F)(F)F)cc1Cl` [Compound 19] yielded an IC50 [1] of 5.1 nM and an IC50 [2] of 818 nM.
Molecule `CCc1c(N2CCC(NC(=O)c3ncnc(C)c3O)C2)c(=O)n2nc(C3=CCOCC3)nc2n1CC(=O)Nc1ccc(C(F)(F)F)cc1C` (centres unmarked) [Compound 23] has an IC50 [1] of 6.3 nM and an IC50 [2] of 1870 nM.
For `CCc1c(N2CCN(Cc3cccn(C)c3=O)C(=O)C2)c(=O)n2nc(C3=CCOCC3)nc2n1CC(=O)Nc1ccc(C(F)(F)F)cc1C` [Compound 68], the IC50 [1] was 5000 nM.
In the case of `CCc1c(N2CC3CC(C(=O)c4ncnc(C)c4O)C(C2)N3)c(=O)n2nc(C3=CCOCC3)nc2n1CC(=O)Nc1ccc(C(F)(F)F)cc1Cl` (centres unmarked) [Compound 186], the IC50 [1] is reported as 2.7 nM, the IC50 [2] is reported as 716 nM and the IC50 [3] is reported as 13 nM.
In the case of `CCc1c(N2CC3CC(C2)N3C(=O)c2ncnc(C)c2O)c(=O)n2nc(C3=CCOCC3)nc2n1CC(=O)Nc1ccc(C(F)(F)F)cc1C` [Compound 187, 2-(2-(3,6-dihydro-2H-pyran-4-yl)-5-ethyl-6-(6-(5-hydroxy-6-methylpyrimidine-4-carbonyl)-3,6-diazabicyclo[3.1.1]heptan-3-yl)-7-oxo-[1,2,4]triazolo [1,5-a]pyrimidin-4(7H)-yl)-N-(2-methyl-4-(trifluoromethyl)phenyl)acetamide], the IC50 [1] is reported as 8.6 nM and the IC50 [2] is reported as 4500 nM.
For `CCc1c(N2C3CCC2CN(C(=O)c2ncccc2O)C3)c(=O)n2nc(C3=CCOCC3)nc2n1CC(=O)Nc1ccc(C(F)(F)F)cc1Cl` [Compound 189, N-(2-chloro-4-(trifluoromethyl)phenyl)-2-(2-(3,6-dihydro-2H-pyran-4-yl)-5-ethyl-6-(3-(3-hydroxypicolinoyl)-3,8-diazabicyclo[3.2.1]octan-8-yl)-7-oxo-[1,2,4]triazolo[1,5-a]pyrimidin-4(7H)-yl)acetamide], the IC50 [1] was 4.6 nM and the IC50 [2] was 1110 nM.
`CCc1c(C2=CCN(C(=O)c3ncnc(C)c3O)CCC2)c(=O)n2nc(C3=CCOCC3)nc2n1CC(=O)Nc1ccc(C(F)(F)F)cc1Cl` [Compound 190, N-(2-chloro-4-(trifluoromethyl)phenyl)-2-(2-(3,6-dihydro-2H-pyran-4-yl)-5-ethyl-6-(1-(5-hydroxy-6-methylpyrimidine-4-carbonyl)-2,5,6,7-tetrahydro-1H-azepin-4-yl)-7-oxo-[1,2,4]triazolo[1,5-a]pyrimidin-4(7H)-yl)acetamide] showed an IC50 [1] of 5.2 nM and an IC50 [2] of 2240 nM.
In the case of `CCc1c(N2CCN(C(=O)c3ncnc(C)c3O)CC2)c(=O)n2nc(C3C4CC(OC)CC43)nc2n1CC(=O)Nc1ccc(C(F)(F)F)cc1Cl` (centres unmarked) [Compound 191, N-(2-chloro-4-(trifluoromethyl)phenyl)-2-(5-ethyl-6-(4-(5-hydroxy-6-methylpyrimidine-4-carbonyl)piperazin-1-yl)-2-(3-methoxybicyclo[3.1.0]hexan-6-yl)-7-oxo-[1,2,4]triazolo[1,5-a]pyrimidin-4(7H)-yl)acetamide], the IC50 [1] is reported as 3.7 nM.
Work on `CCc1c(N2CCN(C(=O)c3ncnc(C)c3O)CC2)c(=O)n2nc(C3C4COCC43)nc2n1CC(=O)Nc1ccc(C(F)(F)F)cc1Cl` (centres unmarked) [Compound 192, 2-(2-(3-oxabicyclo[3.1.0]hexan-6-yl)-5-ethyl-6-(4-(5-hydroxy-6-methylpyrimidine-4-carbonyl)piperazin-1-yl)-7-oxo-[1,2,4]triazolo[1,5-a]pyrimidin-4(7H)-yl)-N-(2-chloro-4-(trifluoromethyl)phenyl)acetamide] yielded an IC50 [1] of 8.4 nM and an IC50 [2] of 4180 nM.
`CCc1c(C2=CCN(C(=O)c3ncnc(C)c3O)CCC2)c(=O)n2nc(C3CCOCC3)nc2n1CC(=O)Nc1ccc(C(F)(F)F)cc1Cl` [Compound 196, N-(2-chloro-4-(trifluoromethyl)phenyl)-2-(5-ethyl-6-(1-(5-hydroxy-6-methylpyrimidine-4-carbonyl)-2,5,6,7-tetrahydro-1H-azepin-4-yl)-7-oxo-2-(tetrahydro-2H-pyran-4-yl)-[1,2,4]triazolo[1,5-a]pyrimidin-4(7H)-yl)acetamide] showed an IC50 [1] of 1280 nM.
`CCc1c(N2CCN(C(=O)c3ncccc3O)CC2)c(=O)n2nc(C3=CCOCC3)nc2n1CC(=O)Nc1ccc(Cl)c(C(F)(F)F)c1` [Compound 197] gave an IC50 [1] of 3.8 nM and an IC50 [2] of 28 nM.
Molecule `CCc1c(N2CCN(C(=O)c3ncccc3O)CC2)c(=O)n2nc(C3=CCOCC3)nc2n1CC(=O)Nc1ccc(OC(F)(F)F)cc1` [Compound 198] has an IC50 [1] of 2.3 nM and an IC50 [2] of 129 nM.
`CCc1c(N2CC3CCC(C2)N3C(=O)c2ncccc2O)c(=O)n2nc(C3=CCOCC3)nc2n1CC(=O)Nc1ccc(Cl)c(C(F)(F)F)c1` [Compound 199] showed an IC50 [1] of 9.3 nM and an IC50 [2] of 3350 nM.
In the case of `CCc1c(N2CC3CCC(C2)N3C(=O)c2ncccc2O)c(=O)n2nc(C3=CCOCC3)nc2n1CC(=O)Nc1ccc(OC(F)(F)F)cc1` [Compound 200], the IC50 [1] is reported as 4.4 nM and the IC50 [2] is reported as 7240 nM.
Molecule `CCc1c(N2CC3CCC(C2)N3C(=O)c2nccc(Cl)c2O)c(=O)n2nc(C3=CCOCC3)nc2n1CC(=O)Nc1ccc(C(F)(F)F)nc1Cl` [Compound 201] has an IC50 [1] of 7.3 nM and an IC50 [2] of 802 nM.
With `CCc1c(N2CC3CCC(C2)N3C(=O)c2ncccc2O)c(=O)n2nc(C3=CCC(OC)CC3)nc2n1CC(=O)Nc1ccc(C(F)(F)F)cc1C` (centres unmarked) [Compound 202, 2-(5-ethyl-6-(8-(3-hydroxypicolinoyl)-3,8-diazabicyclo[3.2.1]octan-3-yl)-2-(4-methoxycyclohex-1-en-1-yl)-7-oxo-[1,2,4]triazolo[1,5-a]pyrimidin-4(7H)-yl)-N-(2-methyl-4-(trifluoromethyl)phenyl)acetamide] the IC50 [1] was 7 nM and the IC50 [2] was 1040 nM.
In the case of `CCc1c(N2CC3CCC(C2)N3C(=O)c2ncccc2O)c(=O)n2nc(C3=CCN(CC(F)F)CC3)nc2n1CC(=O)Nc1ccc(C(F)(F)F)cc1C` [Compound 203, 2-(2-(1-(2,2-difluoroethyl)-1,2,3,6-tetrahydropyridin-4-yl)-5-ethyl-6-(8-(3-hydroxypicolinoyl)-3,8-diazabicyclo[3.2.1]octan-3-yl)-7-oxo-[1,2,4]triazolo[1,5-a]pyrimidin-4(7H)-yl)-N-(2-methyl-4-(trifluoromethyl)phenyl)acetamide], the IC50 [1] is reported as 8.7 nM and the IC50 [2] is reported as 967 nM.
With `CCc1c(N2CC3CCC(C2)N3C(=O)c2ncccc2O)c(=O)n2nc(-c3cnn(C)c3)nc2n1CC(=O)Nc1ccc(C(F)(F)F)cc1C` [Compound 204] the IC50 [1] was 7.1 nM and the IC50 [2] was 1790 nM.
Work on `CCc1c(N2CC3CC(F)C(C2)N3C(=O)c2ncccc2O)c(=O)n2nc(C3=CCOCC3)nc2n1CC(=O)Nc1ccc(C(F)(F)F)cc1C` (centres unmarked) [Compound 205] yielded an IC50 [1] of 10.9 nM and an IC50 [2] of 2370 nM.
In the case of `CCc1c(N2C3CCC2CN(C(=O)c2ncccc2O)C3)c(=O)n2nc(C3=CCOCC3)nc2n1CC(=O)Nc1ccc(C(F)(F)F)cc1C` [Compound 206], the IC50 [1] is reported as 3.6 nM and the IC50 [2] is reported as 1140 nM.
`CCc1c(N2C3CCC2CN(C(=O)c2ncccc2O)C3)c(=O)n2nc(-c3cnn(C)c3)nc2n1CC(=O)Nc1ccc(C(F)(F)F)cc1C` [Compound 207] showed an IC50 [1] of 5.1 nM and an IC50 [2] of 1140 nM.
Molecule `CCc1c(N2C3CCC2CN(C(=O)c2ncnc(C)c2O)C3)c(=O)n2nc(-c3cnn(C)c3)nc2n1CC(=O)Nc1ccc(C(F)(F)F)cc1C` [Compound 208] has an IC50 [1] of 6.2 nM and an IC50 [2] of 440 nM.
